From ChEMBL document CHEMBL4257572, “Semisynthesis of ent-norstrobane diterpenoids as potential inhibitor for factor Xa” (Bioorg Med Chem Lett, 2018)

Target: Coagulation factor X (Homo sapiens, UniProt P00742)
Test: Inhibition of human coagulation factor 10a using Z-D-Arg-Gly-Arg-pNA.2HCl as substrate preincubated for 15 mins followed by substrate addition by UV absorption assay

Sequence of Coagulation factor X (P00742 41-179 limits assumed): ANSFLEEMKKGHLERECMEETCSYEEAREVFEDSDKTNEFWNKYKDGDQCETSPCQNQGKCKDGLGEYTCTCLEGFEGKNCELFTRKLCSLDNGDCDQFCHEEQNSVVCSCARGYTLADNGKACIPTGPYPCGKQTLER
Sequence of Coagulation factor X (P00742 235-488 limits assumed): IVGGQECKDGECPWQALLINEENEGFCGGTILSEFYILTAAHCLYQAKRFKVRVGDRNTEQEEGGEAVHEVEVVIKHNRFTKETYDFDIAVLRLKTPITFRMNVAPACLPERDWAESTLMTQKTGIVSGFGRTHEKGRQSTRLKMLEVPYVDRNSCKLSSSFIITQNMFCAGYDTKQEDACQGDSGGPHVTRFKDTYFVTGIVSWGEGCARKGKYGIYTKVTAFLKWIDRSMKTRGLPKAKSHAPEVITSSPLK

| IC50 | Compound |
| --- | --- |
| 7.16 µM | CC1(C)OCC([C@]2(C)C=C3CC[C@@H]4[C@](C)(CO)C[C@@H](O)C[C@@]4(C)[C@@H]3CC2)O1 (stereo not given in full) |
| 0.081 µM | CC(=O)OC[C@]1(C)C[C@@H](OC(C)=O)C[C@@]2(C)[C@@H]3CC[C@](C)(O)CC=C3CC[C@H]12 |
| 3.03 µM | CC(=O)O[C@@H]1CC[C@@]2(C)[C@@H]3CC[C@](C)([C@@H](O)CO)C=C3CC[C@@H]2C1(C)C |
| 5.73 µM | CC(=O)O[C@@H]1CC[C@@]2(C)[C@@H]3CC[C@](C)(O)CC=C3CC[C@@H]2C1(C)C |
| 1.07 µM | CC(=O)OC[C@]1(C)C[C@@H](OC(C)=O)C[C@@]2(C)[C@@H]3CC[C@](C)(CO)C=C3CC[C@H]12 |
| 5.62 µM | CC(=O)OC[C@]1(C)C[C@@H](OC(C)=O)C[C@@]2(C)[C@@H]3CC[C@](C)([C@@H](O)CO)C=C3CC[C@H]12 |
| 1.02 µM | CC1(C)OCC([C@]2(C)C=C3CC[C@@H]4C(C)(C)[C@H](O)CC[C@@]4(C)[C@@H]3CC2)O1 (stereo not given in full) |
| 8.45 µM | CC(=O)O[C@@H]1CC[C@@]2(C)[C@@H]3CC[C@](C)(CO)C=C3CC[C@@H]2C1(C)C |
| 11.4 µM | CC1(C)[C@H](O)CC[C@@]2(C)[C@@H]3CC[C@](C)([C@@H](O)CO)C=C3CC[C@H]12 [DARUTIGENOL] |
| 2.57 µM | C[C@@]1(CO)C[C@@H](O)C[C@@]2(C)[C@@H]3CC[C@](C)([C@@H](O)CO)C=C3CC[C@H]12 [KIRENOL] |
